Results on 42 compounds are retold here after patent publication US10544143B2, “4-azaindole compounds” (BRISTOL-MYERS SQUIBB COMPANY, priority 2017, dated 2020).

pIC50: −log10 of the molar value.

One assay concerns the target human TLR9 (Homo sapiens (Human), UniProt Q9NR96). The assay can be described thus: TLR9 inhibition reporter assay (HEK-Blue SEAP).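 Further: SEAP driven by an IFN-β minimal promoter with NF-κB and AP-1 sites, read after 22 h, compounds dosed 0.05 nM–50 µM, inhibition scaled between agonist plus DMSO and reference-inhibitor wells.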 The settings on record: read-out: TLR9 IC50; HEK-Blue cells overexpressing human TLR9, ODN2006 5 nM stimulation, SEAP reporter. A general note: A reporter such as luciferase makes a cellular process visible.
For another assay, the target named is human TLR7 (Homo sapiens (Human), UniProt Q9NYK1). Briefly: TLR7 inhibition reporter assay (HEK-Blue SEAP). The assay is classed as cell-based. The settings on record: HEK-Blue cells overexpressing human TLR7, gardiquimod 7.5 μM stimulation, SEAP reporter.
Another assay has as its target human TLR8 (Homo sapiens (Human), UniProt Q9NR97). The assay can be described thus: TLR8 inhibition reporter assay (HEK-Blue SEAP).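 Further: SEAP driven by IFN-β minimal promoter carrying NF-κB and AP-1 sites, compounds dosed 0.05 nM to 50 µM for 22 h, inhibition scaled between agonist-plus-DMSO and reference-inhibitor wells.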 As to conditions: read-out: TLR8 IC50; HEK-Blue cells overexpressing human TLR8, R848 15.9 μM stimulation, SEAP reporter.

Chain of human TLR8 (Q9NR97 27-1041): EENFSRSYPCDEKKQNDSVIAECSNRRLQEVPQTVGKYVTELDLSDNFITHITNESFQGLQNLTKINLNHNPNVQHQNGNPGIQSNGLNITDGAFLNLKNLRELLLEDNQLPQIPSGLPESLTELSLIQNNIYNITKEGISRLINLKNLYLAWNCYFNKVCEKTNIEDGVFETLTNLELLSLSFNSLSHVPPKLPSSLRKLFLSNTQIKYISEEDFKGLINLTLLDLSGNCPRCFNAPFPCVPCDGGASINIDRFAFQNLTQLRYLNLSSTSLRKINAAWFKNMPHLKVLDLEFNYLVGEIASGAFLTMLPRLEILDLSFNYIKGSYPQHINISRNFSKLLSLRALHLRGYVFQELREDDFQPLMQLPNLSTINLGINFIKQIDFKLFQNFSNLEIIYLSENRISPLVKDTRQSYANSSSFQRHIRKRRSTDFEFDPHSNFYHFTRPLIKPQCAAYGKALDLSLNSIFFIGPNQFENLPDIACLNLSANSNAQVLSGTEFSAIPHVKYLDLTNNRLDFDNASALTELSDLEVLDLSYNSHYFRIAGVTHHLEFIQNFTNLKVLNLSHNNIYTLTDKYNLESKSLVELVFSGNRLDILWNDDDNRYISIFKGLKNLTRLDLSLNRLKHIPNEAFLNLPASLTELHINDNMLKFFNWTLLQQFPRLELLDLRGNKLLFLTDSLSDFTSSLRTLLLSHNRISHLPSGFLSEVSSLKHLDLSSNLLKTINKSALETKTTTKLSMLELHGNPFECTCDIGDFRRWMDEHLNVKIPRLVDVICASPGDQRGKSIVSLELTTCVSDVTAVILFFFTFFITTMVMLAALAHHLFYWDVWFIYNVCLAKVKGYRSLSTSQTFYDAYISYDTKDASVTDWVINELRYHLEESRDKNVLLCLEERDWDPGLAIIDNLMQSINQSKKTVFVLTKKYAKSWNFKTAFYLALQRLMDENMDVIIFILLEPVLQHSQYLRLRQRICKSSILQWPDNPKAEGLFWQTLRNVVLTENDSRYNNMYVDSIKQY
Chain of human TLR9 (Q9NR96 26-1032): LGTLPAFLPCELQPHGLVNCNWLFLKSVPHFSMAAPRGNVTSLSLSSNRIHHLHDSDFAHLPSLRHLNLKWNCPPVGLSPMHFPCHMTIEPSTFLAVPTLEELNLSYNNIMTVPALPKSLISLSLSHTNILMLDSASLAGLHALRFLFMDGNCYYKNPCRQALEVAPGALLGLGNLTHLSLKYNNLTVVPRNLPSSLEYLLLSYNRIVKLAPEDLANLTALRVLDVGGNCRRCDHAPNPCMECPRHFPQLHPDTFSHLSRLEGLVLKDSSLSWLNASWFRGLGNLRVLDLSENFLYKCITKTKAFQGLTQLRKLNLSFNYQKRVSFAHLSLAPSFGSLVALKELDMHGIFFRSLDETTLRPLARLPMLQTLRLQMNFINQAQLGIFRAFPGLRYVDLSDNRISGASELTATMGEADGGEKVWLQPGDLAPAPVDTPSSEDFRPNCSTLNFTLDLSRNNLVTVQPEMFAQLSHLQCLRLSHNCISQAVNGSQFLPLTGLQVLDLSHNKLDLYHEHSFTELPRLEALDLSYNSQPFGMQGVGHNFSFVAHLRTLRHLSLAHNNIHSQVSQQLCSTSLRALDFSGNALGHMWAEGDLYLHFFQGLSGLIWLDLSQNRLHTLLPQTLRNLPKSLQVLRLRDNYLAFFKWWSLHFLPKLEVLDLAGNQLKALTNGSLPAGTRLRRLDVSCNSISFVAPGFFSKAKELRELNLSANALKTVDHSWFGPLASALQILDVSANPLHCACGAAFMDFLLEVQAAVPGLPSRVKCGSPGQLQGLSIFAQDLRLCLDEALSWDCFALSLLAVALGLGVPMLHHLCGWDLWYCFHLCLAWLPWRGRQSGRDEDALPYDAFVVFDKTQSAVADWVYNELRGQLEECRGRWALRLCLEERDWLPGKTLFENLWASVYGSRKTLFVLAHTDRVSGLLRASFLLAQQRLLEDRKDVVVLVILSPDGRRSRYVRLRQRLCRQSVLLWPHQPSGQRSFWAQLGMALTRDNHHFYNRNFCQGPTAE
Chain of human TLR7 (Q9NYK1 27-1049): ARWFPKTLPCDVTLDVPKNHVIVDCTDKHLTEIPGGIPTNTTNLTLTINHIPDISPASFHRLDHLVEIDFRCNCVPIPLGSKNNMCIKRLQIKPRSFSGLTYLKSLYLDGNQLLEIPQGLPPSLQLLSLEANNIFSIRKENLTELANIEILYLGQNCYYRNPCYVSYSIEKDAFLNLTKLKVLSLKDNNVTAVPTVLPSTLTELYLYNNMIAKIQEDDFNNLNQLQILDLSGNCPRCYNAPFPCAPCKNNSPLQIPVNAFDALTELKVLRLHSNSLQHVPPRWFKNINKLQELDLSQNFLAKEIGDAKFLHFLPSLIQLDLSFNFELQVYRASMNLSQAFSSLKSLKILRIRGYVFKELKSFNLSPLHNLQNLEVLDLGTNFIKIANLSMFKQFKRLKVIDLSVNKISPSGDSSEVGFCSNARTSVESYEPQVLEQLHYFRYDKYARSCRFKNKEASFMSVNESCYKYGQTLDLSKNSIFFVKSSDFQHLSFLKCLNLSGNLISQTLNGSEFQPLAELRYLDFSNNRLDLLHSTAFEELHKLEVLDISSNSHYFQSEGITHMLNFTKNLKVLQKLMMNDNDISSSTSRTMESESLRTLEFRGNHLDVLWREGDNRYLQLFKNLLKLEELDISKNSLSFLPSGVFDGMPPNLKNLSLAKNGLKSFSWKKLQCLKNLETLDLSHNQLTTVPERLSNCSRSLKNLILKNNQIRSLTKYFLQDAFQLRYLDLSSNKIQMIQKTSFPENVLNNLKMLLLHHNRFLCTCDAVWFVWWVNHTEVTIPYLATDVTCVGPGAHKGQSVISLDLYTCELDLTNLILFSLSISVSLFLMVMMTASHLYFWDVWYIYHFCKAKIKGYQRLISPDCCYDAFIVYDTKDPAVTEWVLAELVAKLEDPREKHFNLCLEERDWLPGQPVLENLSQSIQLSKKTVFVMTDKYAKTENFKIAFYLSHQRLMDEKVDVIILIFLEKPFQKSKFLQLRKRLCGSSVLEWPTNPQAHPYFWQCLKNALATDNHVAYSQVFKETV
Protocol for human TLR7: HEK-Blue™-cells (Invivogen) overexpressing human TLR7, TLR8 or TLR9 receptors were used for screening inhibitors of these receptors using an inducible SEAP (secreted embryonic alkaline phosphatase) reporter gene under the control of the IFN-β minimal promoter fused to five NF-κB and AP-1-binding sites. Briefly, cells are seeded into Greiner 384 well plates (15000 cells per well for TLR7, 20,000 for TLR8 and 25,000 for TLR9) and then treated with test compounds in DMSO to yield a final dose response concentration range of 0.05 nM-50 μM. After a 30 minute compound pre-treatment at room temperature, the cells are then stimulated with a TLR7 ligand (gardiquimod at a final concentration of 7.5 μM), TLR8 ligand (R848 at a final concentration of 15.9 μM) or TLR9 ligand (ODN2006 at a final concentration of 5 nM) to activate NF-κB and AP-1 which induce the production of SEAP. After a 22 hour incubation at 37° C., 5% CO2, SEAP levels are determined with the addition of HEK-Blue™ Detection reagent (Invivogen), a cell culture medium that allows for detection of SEAP, according to manufacturer's specifications.

Turning to `Cc1c(-c2[nH]c3ccc(N4CC(O)C4)nc3c2C(C)C)cn2ncnc2c1C` [Example 38], the pIC50 – broadly, the IC50 on a negative log10 scale, so that one unit is a factor of ten – on human TLR9 was 4.35; at human TLR7 it was 7.68; at human TLR8, 8.28.
For `Cc1c(-c2[nH]c3ccc(N4CC(N5CCC(O)CC5)C4)nc3c2C(C)C)cn2ncnc2c1C` [Example 40] the same measures were 5.10, 7.62 and 8.77.
The matching figures for `Cc1c(-c2[nH]c3ccc(N4CC(N5CCS(=O)(=O)CC5)C4)nc3c2C(C)C)cn2ncnc2c1C` [Example 41]: less than 4.30, 6.58 and 6.75.
For `COC(=O)N1CCN(C2CN(c3ccc4[nH]c(-c5cn6ncnc6c(C)c5C)c(C(C)C)c4n3)C2)CC1` [Example 42] the same measures were less than 4.30, 6.75 and 7.24.
On to `Cc1c(-c2[nH]c3ccc(N4CC5(CCNCC5)C4)nc3c2C(C)C)cn2ncnc2c1C` [Example 43], for which the pIC50 on human TLR9 was 6.25; at human TLR7, 8.70; at human TLR8, 8.11.
Turning to `Cc1c(-c2[nH]c3ccc(N4CC5(CCN(CC(=O)N(C)C)CC5)C4)nc3c2C(C)C)cn2ncnc2c1C` [Example 44], the negative-log IC50 (pIC50) at human TLR9 was 5.47; on human TLR7, 7.92; at human TLR8, 7.82.
The matching figures for `Cc1c(-c2[nH]c3ccc(N4CC5(CCN(CCS(C)(=O)=O)CC5)C4)nc3c2C(C)C)cn2ncnc2c1C` [Example 45]: 5.14, 7.66 and 7.70.
For `Cc1c(-c2[nH]c3ccc(N4CC5(CCN(C(C)C)CC5)C4)nc3c2C(C)C)cn2ncnc2c1C` [Example 46] the same measures were 5.77, 8.37 and 8.31.
Consider `Cc1c(-c2[nH]c3ccc(N4CCC(N(Cc5c[nH]nn5)Cc5c[nH]nn5)CC4)nc3c2C(C)C)cn2ncnc2c1C` [Example 48], for which the figures for the pIC50 at human TLR9, against human TLR7 and at human TLR8 were 4.50, 8.13 and 8.03, respectively.
As to `Cc1c(-c2[nH]c3ccc(N4CCC(NC5CCOCC5)CC4)nc3c2C(C)C)cn2ncnc2c1C` [Example 49], the negative logarithm of the IC50 (pIC50) was 5.57 on human TLR9, 9.00 against human TLR7 and 9.21 on human TLR8.
In the case of `Cc1c(-c2[nH]c3ccc(N4CCC(N)CC4)nc3c2C(C)C)cn2ncnc2c1C` [Example 50], the negative logarithm of the IC50 (pIC50) at human TLR9 was 5.55; against human TLR7, 9.31; on human TLR8, 9.41.
For `CC(C)c1c(-c2cn(C)c3ncccc23)[nH]c2ccc(N3CCC(N(CC#N)CC#N)CC3)nc12` [Example 51] the same measures were 4.79, 8.29 and 8.15.
The matching figures for `CC(C)c1c(-c2cn(C)c3ncccc23)[nH]c2ccc(N3CCC(NCCS(C)(=O)=O)CC3)nc12` [Example 53]: 5.70, 9.21 and 9.64.
On to `CC(C)c1c(-c2cn(C)c3ncccc23)[nH]c2ccc(N3CCC(N(CC(=O)N(C)C)CC(=O)N(C)C)CC3)nc12` [Example 54], for which the pIC50 was 4.98 on human TLR9, 8.54 against human TLR7 and 8.55 at human TLR8.
Regarding `Cc1c(-c2[nH]c3ccc(N4CCC(N(C)C5CCOCC5)CC4)nc3c2C(C)C)cn2ncnc2c1C` [Example 55], the pIC50 on human TLR9 is 5.48; against human TLR7, 8.68; at human TLR8 it was 9.41.
For `Cc1c(-c2[nH]c3ccc(N4CCC(NCc5csnn5)CC4)nc3c2C(C)C)cn2ncnc2c1C` [Example 56] the same measures were 5.20, 8.70 and 8.96.
For `Cc1c(-c2[nH]c3ccc(N4CCC(NC5CCC5)CC4)nc3c2C(C)C)cn2ncnc2c1C` [Example 57], the pIC50 at human TLR9 is 5.29; against human TLR7, 8.13; on human TLR8, 8.89.
For `Cc1c(-c2[nH]c3ccc(N4CCC(N(C)CC5CC5)CC4)nc3c2C(C)C)cn2ncnc2c1C` [Example 58] the same measures were 5.71, 8.89 and 9.14.
For `Cc1c(-c2[nH]c3ccc(N4CCC(N(C)C5CCC5)CC4)nc3c2C(C)C)cn2ncnc2c1C` [Example 59] the same measures were 5.62, 8.89 and 8.96.
The matching figures for `Cc1c(-c2[nH]c3ccc(N4CCC(N(C)Cc5ncccn5)CC4)nc3c2C(C)C)cn2ncnc2c1C` [Example 60]: 4.69, 8.25 and 8.23.
Take `COc1ncnc(OC)c1CN(C)C1CCN(c2ccc3[nH]c(-c4cn5ncnc5c(C)c4C)c(C(C)C)c3n2)CC1` [Example 61]: the negative logarithm of the IC50 (pIC50) was 5.62 on human TLR9, 8.36 on human TLR7 and 8.74 at human TLR8.
Take `Cc1c(-c2[nH]c3ccc(N4CCC(N(C)Cc5ccnn5C)CC4)nc3c2C(C)C)cn2ncnc2c1C` [Example 62]: the pIC50 is 4.94 on human TLR9, 8.42 against human TLR7 and 8.82 at human TLR8.
For `Cc1c(-c2[nH]c3ccc(N4CCC(N(C)Cc5ncnn5C)CC4)nc3c2C(C)C)cn2ncnc2c1C` [Example 63] the same measures were 4.37, 8.13 and 8.40.
Turning to `Cc1ncc(CN(C)C2CCN(c3ccc4[nH]c(-c5cn6ncnc6c(C)c5C)c(C(C)C)c4n3)CC2)cn1` [Example 64], the pIC50 on human TLR9 is 5.29; against human TLR7, 8.42; at human TLR8, 8.80.
For the compound `Cc1c(-c2[nH]c3ccc(N4CCC(N(C)C5COC5)CC4)nc3c2C(C)C)cn2ncnc2c1C` [Example 65], the negative logarithm of the IC50 (pIC50) was 4.60 at human TLR9, 8.72 on human TLR7 and 8.89 at human TLR8.
`CCN(C)C1CCN(c2ccc3[nH]c(-c4cn5ncnc5c(C)c4C)c(C(C)C)c3n2)CC1` [Example 66]: the pIC50 is 5.41 at human TLR9, 8.85 against human TLR7 and 9.01 on human TLR8.
The matching figures for `COc1ncc(CN(C)C2CCN(c3ccc4[nH]c(-c5cn6ncnc6c(C)c5C)c(C(C)C)c4n3)CC2)cn1` [Example 67]: 6.02, 9.01 and 9.38.
Take `Cc1c(-c2[nH]c3ccc(N4CCC(N(C)Cc5cn(C)nn5)CC4)nc3c2C(C)C)cn2ncnc2c1C` [Example 68]: the pIC50 was 5.20 at human TLR9, 8.85 at human TLR7 and 9.10 at human TLR8.
As for `COc1ncnc(OC)c1CNC1CCN(c2ccc3[nH]c(-c4cn5ncnc5c(C)c4C)c(C(C)C)c3n2)CC1` [Example 69], the pIC50 was 4.59 on human TLR9, 5.88 against human TLR7 and 5.88 at human TLR8.
Turning to `CCN(CC)C1CCN(c2ccc3[nH]c(-c4cn5ncnc5c(C)c4C)c(C(C)C)c3n2)CC1` [Example 70], the negative-log IC50 (pIC50) at human TLR9 was 5.53; against human TLR7, 8.64; on human TLR8, 8.92.
The matching figures for `COc1ncnc(OC)c1CN(Cc1c(OC)ncnc1OC)C1CCN(c2ccc3[nH]c(-c4cn5ncnc5c(C)c4C)c(C(C)C)c3n2)CC1` [Example 71]: 5.41, 7.00 and 7.51.
The matching figures for `COc1ncc(CNC2CCN(c3ccc4[nH]c(-c5cn6ncnc6c(C)c5C)c(C(C)C)c4n3)CC2)cn1` [Example 72]: 5.47, 8.54 and 9.05.
With `Cc1c(-c2[nH]c3ccc(N4CCC(N(Cc5cn(C)nn5)Cc5cn(C)nn5)CC4)nc3c2C(C)C)cn2ncnc2c1C` [Example 73], the pIC50 on human TLR9 is 4.60; at human TLR7, 7.54; on human TLR8, 8.24.
For `Cc1nccc(CN(Cc2ccnc(C)n2)C2CCN(c3ccc4[nH]c(-c5cn6ncnc6c(C)c5C)c(C(C)C)c4n3)CC2)n1` [Example 74] the same measures were less than 4.30, 5.61 and 5.59.
For `COc1ncc(CN(Cc2cnc(OC)nc2)C2CCN(c3ccc4[nH]c(-c5cn6ncnc6c(C)c5C)c(C(C)C)c4n3)CC2)cn1` [Example 75], the values for the pIC50 at human TLR9, against human TLR7 and at human TLR8 were less than 4.30, 7.74 and 8.01, respectively.
For `Cc1c(-c2[nH]c3ccc(N4CCC(N(Cc5ncnn5C)Cc5ncnn5C)CC4)nc3c2C(C)C)cn2ncnc2c1C` [Example 76] the same measures were less than 4.30, 7.47 and 7.82.
The matching figures for `Cc1c(-c2[nH]c3ccc(N4CCC(N(C)Cc5csnn5)CC4)nc3c2C(C)C)cn2ncnc2c1C` [Example 77]: 4.93, 8.32 and 8.70.
Consider `Cc1c(-c2[nH]c3ccc(N4CCC(N(C)Cc5ncccn5)CC4)nc3c2C(C)C)cn2ncnc2c1C` [Example 78], for which the results for the pIC50 at human TLR9, at human TLR7 and on human TLR8 were 5.50, 8.43 and 8.00, respectively.
For `CC(C)c1c(-c2cc(CO)c3ncnn3c2)[nH]c2ccc(N3CCC(N)CC3)nc12` [Example 79] the same measures were 5.01, 6.43 and 6.45.
With `CC(C)c1c(-c2cc(CO)c3ncnn3c2)[nH]c2ccc(N3CCC(NC4CCOCC4)CC3)nc12` [Example 80], the negative logarithm of the IC50 (pIC50) on human TLR9 is 5.34; against human TLR7, 8.89; on human TLR8, 8.80.
Take `CC(C)c1c(-c2cc(CO)c3ncnn3c2)[nH]c2ccc(N3CCC(NC4COC4)CC3)nc12` [Example 81]: the negative-log IC50 (pIC50) was 4.70 on human TLR9, 8.89 against human TLR7 and 9.02 on human TLR8.
The matching figures for `CC(C)c1c(-c2cc(CO)c3ncnn3c2)[nH]c2ccc(N3CCC(NCC4(C)COC4)CC3)nc12` [Example 82]: 5.20, 9.11 and 9.39.
